Source: patent publication US5438060A, “Method of reducing elevated intraocular pressure” (priority 1994, dated 1995)
Counter-ions that a name gives are not always drawn. Like-named read-outs stand apart in the source and are kept apart here.

Legend:
intraocular pressure = experiment: Experiment 1: ocular hypotensive effect of eye drops in rabbits (applanation pneumatonograph); assay type: in vivo, Male Japanese White rabbits; conditions: for Difference in IOP between the control and test eyes: 50 μl
Experimental: The ocular hypotensive effect of the eye drops of this invention was investigated in rabbits. The same experiment was also conducted using a representative β-adrenergic blocking agent, and its ocular hypotensive effect was compared with that of eye drops of this invention. Methods: […] […] Male Japanese White rabbits (body weight: ca. 2 kg) with normal intraocular pressure were used in the experiment. […] For each solution, five rabbits were used. After anesthesia of the corneal surface by instillating 5 μl of 0.4%. oxybuprocaine hydrochloride, the intraocular pressure was measured using an applanation pneumatonograph (Alcon) before and after the instillation of the test solution and control solution. Measurement of intraocular pressure after the instillation was conducted with one-hour intervals until six hours post-instillation.

rabbit eyes = experiment: Experiment 2: eye irritation test (modified Draize test); assay type: in vivo, Male Japanese White rabbits
[1] = mice, cited from earlier work
[2] = 0.5% eye drops, before instillation

SMILES: OCCN(CCO)c1nc(N2CCCCC2)c2nc(N(CCO)CCO)nc(N3CCCCC3)c2n1 [Compound (1), dipyridamole]
- Difference in IOP between the control and test eyes (intraocular pressure; 0.00005% (free base), 1 hr): -0.60 mmHg
- Difference in IOP between the control and test eyes (intraocular pressure; 0.00005% (free base), 2 hr): -0.50 mmHg
- Difference in IOP between the control and test eyes (intraocular pressure; 0.00005% (free base), 4 hr): -0.20 mmHg
- Difference in IOP between the control and test eyes (intraocular pressure; 0.00005% (free base), 6 hr): -0.10 mmHg
- time of maximal IOP reduction after instillation (intraocular pressure; 0.00005% eye drops): one
- Difference in IOP between the control and test eyes (intraocular pressure; 0.0001% (free base), 1 hr): -1.30 mmHg
- Difference in IOP between the control and test eyes (intraocular pressure; 0.0001% (free base), 2 hr): -0.95 mmHg
- Difference in IOP between the control and test eyes (intraocular pressure; 0.0001% (free base), 4 hr): -0.30 mmHg
- Difference in IOP between the control and test eyes (intraocular pressure; 0.0001% (free base), 6 hr): -0.20 mmHg
- time of maximal IOP reduction after instillation (intraocular pressure; 0.0001% eye drops): one
- ocular hypotensive effect remained unchanged after instillation (intraocular pressure; 0.0005% eye drops): 2.0 h
- Difference in IOP between the control and test eyes (intraocular pressure; 0.001% (free base), 1 hr): -2.00 mmHg
- Difference in IOP between the control and test eyes (intraocular pressure; 0.001% (free base), 2 hr): -1.56 mmHg
- Difference in IOP between the control and test eyes (intraocular pressure; 0.001% (free base), 4 hr): -1.00 mmHg
- Difference in IOP between the control and test eyes (intraocular pressure; 0.001% (free base), 6 hr): -0.75 mmHg
- time of maximal IOP reduction after instillation (intraocular pressure; 0.001% eye drops): one
- Difference in IOP between the control and test eyes (intraocular pressure; 0.01% (free base), 1 hr): -3.44 mmHg
- Difference in IOP between the control and test eyes (intraocular pressure; 0.01% (free base), 2 hr): -2.25 mmHg
- Difference in IOP between the control and test eyes (intraocular pressure; 0.01% (free base), 4 hr): -1.31 mmHg
- Difference in IOP between the control and test eyes (intraocular pressure; 0.01% (free base), 6 hr): -1.00 mmHg
- ocular hypotensive effect remained unchanged after instillation (intraocular pressure; 0.01% eye drops): six
- time of maximal IOP reduction after instillation (intraocular pressure; 0.01% eye drops): one
- Difference in IOP between the control and test eyes (intraocular pressure; 0.1% (free base), 1 hr): -4.50 mmHg
- Difference in IOP between the control and test eyes (intraocular pressure; 0.1% (free base), 2 hr): -3.05 mmHg
- Difference in IOP between the control and test eyes (intraocular pressure; 0.1% (free base), 4 hr): -2.40 mmHg
- Difference in IOP between the control and test eyes (intraocular pressure; 0.1% (free base), 6 hr): -1.00 mmHg
- average difference of the IOP from the control eye drops (intraocular pressure; 0.1% eye drops): 4.5 mmHg
- ocular hypotensive effect retained after instillation (intraocular pressure; 0.1% eye drops): six
- time of maximal IOP reduction after instillation (intraocular pressure; 0.1% eye drops): one
- Difference in IOP between the control and test eyes (intraocular pressure; 0.5% (free base), 1 hr): -3.94 mmHg
- Difference in IOP between the control and test eyes (intraocular pressure; 0.5% (free base), 2 hr): -4.40 mmHg
- Difference in IOP between the control and test eyes (intraocular pressure; 0.5% (free base), 4 hr): -3.10 mmHg
- Difference in IOP between the control and test eyes (intraocular pressure; 0.5% (free base), 6 hr): -1.60 mmHg
- ocular hypotensive effect remained unchanged after instillation (intraocular pressure; 0.5% eye drops): six
- time of maximal IOP reduction after instillation (intraocular pressure; 0.5% eye drops): two
- score for the tunica conjunctiva bulbi versus control solution (rabbit eyes; 0.5% eye drops): slightly higher than that for the control solution
- Conjunctivae: Chemosis (average score) (rabbit eyes; 0.5% eye drops, 0.5 hours): 0
- Conjunctivae: Condition of haw (average score) (rabbit eyes; 0.5% eye drops, 0.5 hours): 0.6
- Conjunctivae: Discharge (average score) (rabbit eyes; 0.5% eye drops, 0.5 hours): 0
- Conjunctivae: Redness of tunica conjunctivae bulbi (average score) (rabbit eyes; 0.5% eye drops, 0.5 hours): 0.9
- Conjunctivae: Redness of tunica conjunctivae palpebrarum (average score) (rabbit eyes; 0.5% eye drops, 0.5 hours): 1.5
- Cornea: Area of cornea involved (average score) (rabbit eyes; 0.5% eye drops, 0.5 hours): 0
- Cornea: Opacity degree of density (average score) (rabbit eyes; 0.5% eye drops, 0.5 hours): 0
- Iris: values (average score) (rabbit eyes; 0.5% eye drops, 0.5 hours): 0.5
- congestion in the iris (rabbit eyes; 0.5% eye drops, 0.5 hours after instillation): slight congestion
- Conjunctivae: Chemosis (average score) (rabbit eyes; 0.5% eye drops, 1 hour): 0
- Conjunctivae: Condition of haw (average score) (rabbit eyes; 0.5% eye drops, 1 hour): 0.5
- Conjunctivae: Discharge (average score) (rabbit eyes; 0.5% eye drops, 1 hour): 0
- Conjunctivae: Redness of tunica conjunctivae bulbi (average score) (rabbit eyes; 0.5% eye drops, 1 hour): 1.1
- Conjunctivae: Redness of tunica conjunctivae palpebrarum (average score) (rabbit eyes; 0.5% eye drops, 1 hour): 1.8
- Cornea: Area of cornea involved (average score) (rabbit eyes; 0.5% eye drops, 1 hour): 0
- Cornea: Opacity degree of density (average score) (rabbit eyes; 0.5% eye drops, 1 hour): 0
- Iris: values (average score) (rabbit eyes; 0.5% eye drops, 1 hour): 1.0
- Conjunctivae: Chemosis (average score) (rabbit eyes; 0.5% eye drops, 2 hours): 0
- Conjunctivae: Condition of haw (average score) (rabbit eyes; 0.5% eye drops, 2 hours): 0.5
- Conjunctivae: Discharge (average score) (rabbit eyes; 0.5% eye drops, 2 hours): 0
- Conjunctivae: Redness of tunica conjunctivae bulbi (average score) (rabbit eyes; 0.5% eye drops, 2 hours): 0.9
- Conjunctivae: Redness of tunica conjunctivae palpebrarum (average score) (rabbit eyes; 0.5% eye drops, 2 hours): 1.8
- Cornea: Area of cornea involved (average score) (rabbit eyes; 0.5% eye drops, 2 hours): 0
- Cornea: Opacity degree of density (average score) (rabbit eyes; 0.5% eye drops, 2 hours): 0
- Iris: values (average score) (rabbit eyes; 0.5% eye drops, 2 hours): 0.8
- Conjunctivae: Chemosis (average score) (rabbit eyes; 0.5% eye drops, 3 hours): 0
- Conjunctivae: Condition of haw (average score) (rabbit eyes; 0.5% eye drops, 3 hours): 0.5
- Conjunctivae: Discharge (average score) (rabbit eyes; 0.5% eye drops, 3 hours): 0
- Conjunctivae: Redness of tunica conjunctivae bulbi (average score) (rabbit eyes; 0.5% eye drops, 3 hours): 0.5
- Conjunctivae: Redness of tunica conjunctivae palpebrarum (average score) (rabbit eyes; 0.5% eye drops, 3 hours): 1.3
- Cornea: Area of cornea involved (average score) (rabbit eyes; 0.5% eye drops, 3 hours): 0
- Cornea: Opacity degree of density (average score) (rabbit eyes; 0.5% eye drops, 3 hours): 0
- Iris: values (average score) (rabbit eyes; 0.5% eye drops, 3 hours): 0.5
- Conjunctivae: Chemosis (average score) (rabbit eyes; 0.5% eye drops, 6 hours): 0
- Conjunctivae: Condition of haw (average score) (rabbit eyes; 0.5% eye drops, 6 hours): 0.5
- Conjunctivae: Discharge (average score) (rabbit eyes; 0.5% eye drops, 6 hours): 0
- Conjunctivae: Redness of tunica conjunctivae bulbi (average score) (rabbit eyes; 0.5% eye drops, 6 hours): 0.1
- Conjunctivae: Redness of tunica conjunctivae palpebrarum (average score) (rabbit eyes; 0.5% eye drops, 6 hours): 0.8
- Cornea: Area of cornea involved (average score) (rabbit eyes; 0.5% eye drops, 6 hours): 0
- Cornea: Opacity degree of density (average score) (rabbit eyes; 0.5% eye drops, 6 hours): 0
- Iris: values (average score) (rabbit eyes; 0.5% eye drops, 6 hours): 0
- congestion in the iris (rabbit eyes; 0.5% eye drops, after 6 hours): disappeared
- Conjunctivae: Chemosis (average score) (rabbit eyes; [2]): 0
- Conjunctivae: Condition of haw (average score) (rabbit eyes; [2]): 0.4
- Conjunctivae: Discharge (average score) (rabbit eyes; [2]): 0
- Conjunctivae: Redness of tunica conjunctivae bulbi (average score) (rabbit eyes; [2]): 0.1
- Conjunctivae: Redness of tunica conjunctivae palpebrarum (average score) (rabbit eyes; [2]): 0.8
- Cornea: Area of cornea involved (average score) (rabbit eyes; [2]): 0
- Cornea: Opacity degree of density (average score) (rabbit eyes; [2]): 0
- Iris: values (average score) (rabbit eyes; [2]): 0
- other irritation items, test solution versus control solution (rabbit eyes; 0.5% eye drops, irrespective of time): no difference
- irritation to rabbit eyes (overall) (rabbit eyes; eye drops of the present invention): negligible irritation
- LD50 ([1]; intravenous injection): 150 mg/kg
- LD50 ([1]; subcutaneous administration): 2700 mg/kg

SMILES: CC(C)(C)NC[C@H](O)COc1nsnc1N1CCOCC1 [Timolol maleate, timolol maleate]
- Difference in IOP between the control and test eyes (intraocular pressure; 0.5% (free base), 1 hr): -0.80 mmHg
- Difference in IOP between the control and test eyes (intraocular pressure; 0.5% (free base), 2 hr): -0.80 mmHg
- Difference in IOP between the control and test eyes (intraocular pressure; 0.5% (free base), 4 hr): -0.25 mmHg
- Difference in IOP between the control and test eyes (intraocular pressure; 0.5% (free base), 6 hr): -0.10 mmHg
- IOP reduction (intraocular pressure; 0.5% eye drops, one hour after instillation): 0.8 mmHg
- IOP reduction (intraocular pressure; 0.5% eye drops, two hours after instillation): 0.8 mmHg
- degree of the IOP reduction compared with the 0.0001% eye drops of the invention (intraocular pressure; 0.5% timolol eye drops): significantly less
